Measurements: patent publication US8008260B2, “Methods of protecting against apoptosis using lipopeptides” (Cleveland Clinic Foundation, priority 2005, dated 2011)
Where “and” joins values, the source holds several entries; their conditions need not be identical. Equal entries are not always repeated. Peptide text beside a SMILES is read from it. * marks the point of attachment. Propyl(2R-PamO,3-PamO) = CCCCCCCCCCCCCCCC(=O)OC[C@H](C*)OC(=O)CCCCCCCCCCCCCCC

Tests used:
ICR mice = experiment: Radioprotection against total body gamma irradiation (TBI), 30-day survival; type: in vivo; conditions: for mice rescued (30-day survival): one experiment
Text: CBLB601, a R-Pam2-lipopeptide with the peptide moiety consisting of C-SKKKK (SEQ ID NO: 8), was selected for more detailed characterization as a radioprotector based upon its ability to activate NF-κB and preliminary in vivo data on radioprotection in NIH-SWISS mice (see Example 2). The objectives of this study were to determine the optimal dose, route of administration, and time of administration of CBLB601 to serve as a protector. ICR female mice of 10-15 weeks of age were used, with 10-15 animals per group or condition.
The optimal intraperitoneal administration schedule of CBLB601 was determined by injecting the compound at different times prior to irradiation. […] Therefore, all of the optimization experiments were performed with 10 Gy of total body irradiation (TBI). A dose of 3 μg of BCLB601/mouse (1/10 NOAEL) was chosen as the starting dose. Thus, 3 μg of CBLB601 was injected i.p. into ICR mice at 0.5 h, 1 h, 6 h, and 24 h or 1 h, 24 h, 48 h, 72 h, 96 h prior to 10 Gy of TBI (as described in Example 1). […] Injection of CBLB601 24 hrs before irradiation clearly yielded the best radioprotection (90-100% 30-day survival). When the compound was administered 48 hrs before irradiation, the radioprotection was ˜30%. Administration of CBLB601 at 1 hr prior to irradiation produced inconsistent results ranging from 80% protection in one experiment (FIG. 5B) to almost no protection (20%) in another experiment (FIG. 5A).
To determine the optimal radioprotective dose of CBLB601, the timing of injection and level of irradiation were kept constant, while the dose of CBLB601 was varied. ICR mice were injected i.p. with 1, 3, 10, 20, or 30 μg of CBLB601/mouse or 0.1, 0.3, 1, 3, 10, or […] 24 hrs prior to irradiation (10 Gy of TBI), and their survival was monitored for 30 days. The best protective dose was 3 μg/mouse, which supported a survival of 100% (FIGS. 6 A and B). […] Thus, the optimal protective dose of CBLB601 was determined to be 3 μg/mouse.
To determine the level of radiation that was protected by CBLB601, radioprotectant-treated and control mice were exposed to increasing levels of TBI. Groups of ICR mice were injected i.p. with either 3 μg CBLB601/mouse or PBS, and then 24 h later they received 10, 11, 12, 13, 14, and 15 Gy doses of TBI. Survival was recorded over 30 days. […] All of the mice irradiated with 10-11 Gy of TBI died between days 12-14 post irradiation, which was typical for death due to hematopoietic failure. All of the mice that received 14-15 Gy of TBI died between days 7-9 post irradiation, which was typical for mortality due to radiation-induced intestinal damage. Mice that were irradiated with 12-13 Gy of TBI died at intermediate times, which was typical for a mixed etiology of radiation-induced mortality. […] To reach a statistically significant 10% difference between control and CBLB601-treated mice, experimental groups of at least 50 mice must be used. Although CBLB601 rescued 100% of mice from 10 Gy of TBI, its protection at 11 Gy of TBI was only 20%. […] This may be indicative of a combined toxicity of the drug and the irradiation.
CBLB601 was administered intramuscularly to determine the optimal route of administration of this compound (especially since this would be the preferred route of administration for humans). […] In another experiment, increasing doses of CBLB601 administered i.m. were tested against 10, 11, and 12 Gy doses of […] (FIG. 9). […] A summary of the dose-dependency of the radioprotection of […] administered i.p. or i.m. 24 h prior to 10 Gy of TBI is shown in FIG. 10.
The optimal schedule of intramuscular administration of CBLB601 was determined by varying the time between drug delivery and irradiation. ICR mice were injected i.m. with 3 μg of CBLB601/mouse 24 h, 6 h, 3 h, and 1 h prior to TBI and +1 h, +3 h after TBI (FIG. 12A), as well as 48 h, 36 h, 24 h, 12 h, and 6 h prior to TBI (FIG. 12B). […]

[1] = Solubility of the lipopeptides
[2] = 10 μg/mouse i.p. 24 hrs before 10 Gy TBI

Compound: CCCCCCCCCCCCCCCC(=O)OC[C@H](CSC[C@H](N)C(=O)N[C@@H](CO)C(=O)N[C@@H](CCCCN)C(=O)N[C@@H](CCCCN)C(=O)N[C@@H](CCCCN)C(=O)N[C@@H](CCCCN)C(=O)O)OC(=O)CCCCCCCCCCCCCCC [CBLB601, R-PAM2C-SKKKK] (H-C(Propyl(2R-PamO,3-PamO))SKKKK-OH)
- mice rescued (30-day survival) (ICR mice; 1 μg/mouse i.p. 24 hrs before 10 Gy TBI): 90%
- protective effect (ICR mice; 3 μg/mouse i.m. after (1 h and 3 h) 10 Gy TBI): no protective effect
- optimal time for intramuscular delivery prior to TBI (ICR mice; 3 μg/mouse i.m., 10 Gy TBI): 24 h
- radioprotection (30-day survival) (ICR mice; 3 μg/mouse i.p. 0.5 h before 10 Gy TBI): 10%
- radioprotection (30-day survival) (ICR mice; 3 μg/mouse i.p. 6 h before 10 Gy TBI): 20%
- kinetics of death versus PBS controls (ICR mice; 3 μg/mouse i.p. 24 h before 11, 12 and 13 Gy): died with an accelerated kinetics
- protection (30-day survival) (ICR mice; 3 μg/mouse i.p. 24 h before 11 Gy TBI): 20%
- protection from irradiation (ICR mice; 3 μg/mouse i.p. 24 h before TBI higher than 11 Gy (12-15 Gy)): no protection
- 30-day survival (ICR mice; 3 μg/mouse i.p. 24 hrs before 10 Gy TBI): 90-100% and 100%
- radioprotection (30-day survival) (ICR mice; 3 μg/mouse i.p. 48 hrs before 10 Gy TBI): ~30%
- radioprotection (ICR mice; 3 μg/mouse i.p. 72 h before 10 Gy TBI): No radioprotection
- radioprotection (ICR mice; 3 μg/mouse i.p. 96 h before 10 Gy TBI): No radioprotection
- combined toxicity with irradiation (ICR mice; 10 μg/mouse i.m. 24 hr before 10 Gy TBI): no sign of combined toxicity
- combined toxicity with irradiation (ICR mice; [2]): Some signs of this combined toxicity were detectable
- mice rescued (30-day survival) (ICR mice; [2]): 90%
- mortality in combination with irradiation versus PBS (ICR mice; 20 μg/mouse i.p. 24 hrs before 10 Gy TBI): accelerated mortality
- mortality in combination with irradiation versus PBS (ICR mice; 30 μg/mouse i.p. 24 hrs before 10 Gy TBI): accelerated mortality
- radioprotection (ICR mice; 1, 3 or 10 μg/mouse i.m. 24 hr before 10 Gy TBI): imparted radioprotection
- mortality shift at higher doses (ICR mice; 10, 30 μg i.m. prior to 10 Gy TBI): non-statistically significant shift to increased mortality
- combined toxicity with irradiation (ICR mice; 10 and 30 μg/mouse i.m. 1 h after 10 Gy TBI): increased levels of combined toxicity
- therapeutic index (toxic dose/effective dose) (ICR mice; i.m. administration): 10-30
- optimal dose (ICR mice; i.m. and i.p., 24 h prior to 10 Gy TBI): 3 μg/mouse
- effective dose per body weight (ICR mice; i.m. delivery, 24 h prior to 10 Gy TBI): 0.06 to 0.115 mg/kg
- radioprotective dose relative to NOAEL (fold lower) (ICR mice; i.p.): 10-30 fold
- optimal protective dose (ICR mice; i.p. 24 hrs before 10 Gy TBI): 3 μg/mouse
- therapeutic index (toxic dose/effective dose) (ICR mice; i.p. administration): 3-10
- effective dose per body weight (ICR mice; i.p. delivery, 24 h prior to 10 Gy TBI): 0.09 to 0.11 mg/kg
- therapeutic index (ICR mice; summary of Example 5): 3
- Solubility [1]: Excellent
